The series relates to GH3-TRE-Luc cell line. The following applies: read-out: AC50 (uM) modified / 1000, viability, 1 nM T3 present, 24 h.

Structures are written as SMILES. Counter-ions that a name gives are not always drawn. Like-named read-outs stand apart in the source and are kept apart here.

`Oc1ccc(O)cc1` [Hydroquinone]: the CC50 was found to be 16 µM (Tox21_110001=Tox21_110169), 32.2 µM (Tox21_110001=Tox21_202345) and 21.9 µM (Tox21_110001=Tox21_300015).

Take `CN(C)C(=S)SC(=S)N(C)C` [Tetramethylthiuram monosulfide]: the CC50 by setting is: (Tox21_110001=Tox21_111656) 2.19 µM; (Tox21_110001=Tox21_201554) 1.5 µM; (Tox21_110001=Tox21_302880) 0.329 µM.

As for `CC/C(=C(\c1ccccc1)c1ccc(OCCN(C)C)cc1)c1ccccc1` [Tamoxifen citrate], the CC50 by setting is: (Tox21_110001=Tox21_110938) 5.89 µM; (Tox21_110001=Tox21_202070) 10.9 µM; (Tox21_110001=Tox21_300274) 4.69 µM.

With `CN(C)C(=S)SSC(=S)N(C)C` [Thiram], the CC50 is, setting by setting: (Tox21_110001=Tox21_111150) 0.159 µM; (Tox21_110001=Tox21_201569) 12.7 µM; (Tox21_110001=Tox21_301102) 0.0524 µM.

On to `CC1CC(OC(=O)c2ccccc2O)CC(C)(C)C1` (stereo not drawn) [3,3,5-Trimethylcyclohexyl salicylate], for which the CC50 by setting is: (Tox21_110001=Tox21_111174) 42.4 µM; (Tox21_110001=Tox21_303082) 72.7 µM.

As for `C=C1C(CCl)(CCl)C2(Cl)C(Cl)C(Cl)C1(Cl)C2(Cl)Cl` (stereo not drawn) [Toxaphene], the CC50 is, setting by setting: (Tox21_110001=Tox21_111173) 5.43 µM; (Tox21_110001=Tox21_200912) 23.5 µM.

Turning to `O=[N+]([O-])c1ccc(O)cc1` [4-Nitrophenol], the CC50 (Tox21_110001=Tox21_300117) was 67.6 µM.

As to `CCCCCCCCCCCC(=O)O` [Triethanolamine Laurate], for the setting “Tox21_110001=Tox21_302696”, the CC50 was 85.4 µM.

In the case of `CCCCCCCC[N+](C)(CCCCCCCC)CCCCCCCC` [Methyltrioctylammonium chloride], the CC50 (Tox21_110001=Tox21_302198) was found to be 5.04 µM.

Consider `NCCc1ccc(O)c(O)c1` [Dopamine], for which, where the note is “Tox21_110001=Tox21_110167”, the CC50 came out at 37 µM.

Turning to `CCCCCCCCCCCCCCCCn1cc[n+](C)c1` [1-Hexadecyl-3-methylimidazolium tetrafluoroborate], the CC50 (Tox21_110001=Tox21_202647) was determined as 12.9 µM.

Take `Cc1c(C)c2c(c(C)c1OC(=O)CCC(=O)O)CC[C@@](C)(CCC[C@H](C)CCC[C@H](C)CCCC(C)C)O2` [d-alpha-Tocopheryl succinate]: the CC50 (Tox21_110001=Tox21_200568) worked out at 20 µM.

Consider `COc1ccc(C(=O)CC(=O)c2ccc(C(C)(C)C)cc2)cc1` [1-(4-tert-Butylphenyl)-3-(4-methoxyphenyl)propane-1,3-dione], for which the CC50 by setting is: (Tox21_110001=Tox21_111427) 24.3 µM; (Tox21_110001=Tox21_202796) 71.9 µM.

On to `COc1ccc(N)cc1N` [2,4-Diaminoanisole sulfate hydrate], for which the CC50 (Tox21_110001=Tox21_302700) was 48.9 µM.

Turning to `CC(C)(C)c1ccc(C(O)CCCN2CCC(C(O)(c3ccccc3)c3ccccc3)CC2)cc1` (stereo not drawn) [Terfenadine], the CC50 (Tox21_110001=Tox21_110296) was found to be 5.45 µM.

Consider `Cc1c(N)nc([C@H](CC(N)=O)NC[C@H](N)C(N)=O)nc1C(=O)N[C@H](C(=O)N[C@H](C)[C@@H](O)[C@H](C)C(=O)N[C@H](C(=O)NCCc1nc(-c2nc(C(=O)NCCC[S+](C)C)cs2)cs1)[C@@H](C)O)[C@@H](O[C@@H]1O[C@@H](CO)[C@@H](O)[C@H](O)[C@@H]1O[C@H]1O[C@H](CO)[C@@H](O)[C@H](OC(N)=O)[C@@H]1O)c1c[nH]cn1` [Bleomycin sulfate], for which, for the setting “Tox21_110001=Tox21_113599”, the CC50 turned out to be 1.85 µM.

`O=C(CCCN1CCC(O)(c2ccc(Cl)cc2)CC1)c1ccc(F)cc1` [Haloperidol]: the CC50 worked out at 20.6 µM (Tox21_110001=Tox21_110162) and 52.1 µM (Tox21_110001=Tox21_300475).

In the case of `Oc1c(Cl)cc(Cl)cc1Sc1cc(Cl)cc(Cl)c1O` [Bithionol], the CC50 reads like this: (Tox21_110001=Tox21_110832) 12.4 µM; (Tox21_110001=Tox21_200384) 6.76 µM; (Tox21_110001=Tox21_302919) 20.3 µM.

For the molecule `COC(=O)[C@H]1[C@H]2C[C@@H]3c4[nH]c5cc(OC)ccc5c4CCN3C[C@H]2C[C@@H](OC(=O)c2cc(OC)c(OC)c(OC)c2)[C@@H]1OC` [Reserpine], the CC50 runs as follows: (Tox21_110001=Tox21_111107) 12.5 µM; (Tox21_110001=Tox21_202395) 22.9 µM; (Tox21_110001=Tox21_300537) 75.5 µM.

As to `COc1ccc(C(=O)/C(Br)=C\C(=O)O)cc1` [Bromebric acid], the CC50 (Tox21_110001=Tox21_111900) stood at 31.6 µM.

For `C#C[C@]1(O)CC[C@H]2[C@@H]3CCC4=CC(=O)CC[C@@H]4[C@H]3CC[C@@]21CC` (racemic) [dl-Norgestrel], for the setting “Tox21_110001=Tox21_303623”, the CC50 came out at 64.5 µM.

Regarding `CC(=C(CCO)SSCC1CCCO1)N(C=O)Cc1cnc(C)nc1N` (stereo in doubt) [Fursultiamine], under “Tox21_110001=Tox21_112989”, the CC50 was found to be 34.7 µM.

Regarding `CN(C)CCCN1c2ccccc2Sc2ccc(Cl)cc21` [Chlorpromazine], the CC50 (Tox21_110001=Tox21_110120) worked out at 8.03 µM.

Consider `BrC1CCC(Br)C(Br)CCC(Br)C(Br)CCC1Br` (stereo not drawn) [1,2,5,6,9,10-Hexabromocyclododecane], for which the CC50 by setting is: (Tox21_110001=Tox21_201402) 17.5 µM; (Tox21_110001=Tox21_303176) 38.8 µM.

In the case of `CN(C)CCOc1ccccc1Cc1ccccc1` [Phenyltoloxamine citrate], for the setting “Tox21_110001=Tox21_110862”, the CC50 was 9.16 µM.

On to `CCN(CC)C(=S)S` [Sodium diethyldithiocarbamate], for which the CC50 (Tox21_110001=Tox21_112412) stood at 1.18 µM.

Consider `CCCCCCCCCCCCCCn1cc[n+](C)c1` [1-Methyl-3-tetradecylimidazolium chloride], for which, where the note is “Tox21_110001=Tox21_202660”, the CC50 amounted to 8.43 µM.

On to `CCCCCCCCCCCC[N+](C)(C)Cc1ccccc1` [Benzyldodecyldimethylammonium bromide], for which the CC50 (Tox21_110001=Tox21_113091) is 5.39 µM.

With `CN(C)CCCN1c2ccccc2CCc2ccccc21` [Imipramine], the CC50 was 9.04 µM (Tox21_110001=Tox21_110174) and 19.5 µM (Tox21_110001=Tox21_301417).

`C=C[C@H]1C[N@@]2CC[C@H]1C[C@H]2[C@H](O)c1ccnc2ccc(OC)cc12` [Quinine]: where the note is “Tox21_110001=Tox21_112389”, the CC50 worked out at 42.9 µM.
